Among the data in PubChem BioAssay AID212 (DTP/NCI, 2004) are T/C values, retold here.

SMILES strings stand for the structures. “And” between values parts separate entries of the source, which are not always exact repeats. Equal entries are not always repeated. Records with an inconclusive call do not appear.

For the test, the system named is BDF1 mice, colon carcinoma 38 sc, T/C %. Nature of the test: NCI In Vivo Anticancer Drug Screen. Data for tumor model Colon Carcinoma 38 (subcutaneous) in B6D2F1 (BDF1) mice. To be noted: endpoint: median tumor weight (est.), higher = larger tumour. The essentials: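 T/C readout: treated group (T) measurement over vehicle control group (C) measurement. Endpoint is survival or tumor size in mice bearing a transplanted tumor.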

[1] abbreviates: dose: 6.25 mg/kg/injection, schedule: Q07DX002 (ip), vehicle: saline with Tween-80.
[2] abbreviates: dose: 25.0 mg/kg/injection, schedule: Q07DX002 (ip), vehicle: saline with Tween-80.
Setting [3] is: dose: 100.0 mg/kg/injection, schedule: Q07DX002 (ip), vehicle: saline with Tween-80.
The mark [4] stands for this setting: dose: 200.0 mg/kg/injection, schedule: Q07DX002 (ip), vehicle: saline.
The mark [5] stands for this setting: dose: 12.5 mg/kg/injection, schedule: Q07DX002 (ip), vehicle: saline with Tween-80.
The mark [6] stands for this setting: dose: 200.0 mg/kg/injection, schedule: Q07DX002 (ip), vehicle: saline with Tween-80.

Take `CCCCCCCC(=O)[O][Hg][CH2]C1COC([CH2][Hg][O]C(=O)CCCCCCC)CO1` (centres undefined): the T/C (dose: 3.12 mg/kg/injection, schedule: Q07DX002 (ip), vehicle: saline with Tween-80) is 76 % of control and 97 % of control; the T/C under setting [1] is 101 % of control; the T/C under setting [2] is 108 % of control and 105 % of control; the T/C under setting [3] was 81 % of control.
In the case of `CNNCc1ccc(C(=O)NC(C)C)cc1`, the T/C runs as follows: (dose: 50.0 mg/kg/injection, schedule: Q07DX003 (ip), vehicle: saline) 110 % of control; (dose: 100.0 mg/kg/injection, schedule: Q07DX003 (ip), vehicle: saline) 123 % of control; (dose: 200.0 mg/kg/injection, schedule: Q07DX003 (ip), vehicle: saline) 99 % of control; (dose: 400.0 mg/kg/injection, schedule: Q07DX003 (ip), vehicle: saline) 35 % of control.
As to `Nc1ncnc2c1ncn2C1OC(COP(=O)(O)O)C(O)C1O` (centres undefined), the T/C reads like this: (dose: 12.5 mg/kg/injection, schedule: Q07DX003 (ip), vehicle: water) 79 % of control; (dose: 25.0 mg/kg/injection, schedule: Q07DX003 (ip), vehicle: water) 70 % of control; (dose: 50.0 mg/kg/injection, schedule: Q07DX003 (ip), vehicle: water) 60 % of control; (dose: 80.0 mg/kg/injection, schedule: Q07DX002 (ip), vehicle: water) 81 % of control; (dose: 100.0 mg/kg/injection, schedule: Q07DX003 (ip), vehicle: water) 95 % of control; (dose: 160.0 mg/kg/injection, schedule: Q07DX002 (ip), vehicle: water) 70 % of control. Further, the T/C under setting [4] is 94 % of control; the T/C (dose: 200.0 mg/kg/injection, schedule: Q07DX003 (ip), vehicle: water) was 118 % of control; the T/C (dose: 320.0 mg/kg/injection, schedule: Q07DX002 (ip), vehicle: water) is 80 % of control; the T/C (dose: 400.0 mg/kg/injection, schedule: Q07DX002 (ip), vehicle: saline) was 89 % of control; the T/C (dose: 400.0 mg/kg/injection, schedule: Q07DX003 (ip), vehicle: water) is 56 % of control; the T/C (dose: 640.0 mg/kg/injection, schedule: Q07DX002 (ip), vehicle: water) is 86 % of control. In addition, the T/C was 77 % of control (dose: 1600.0 mg/kg/injection, schedule: Q07DX002 (ip), vehicle: saline) and 50 % of control (dose: 3200.0 mg/kg/injection, schedule: Q07DX002 (ip), vehicle: saline).
As to `COC1OC(CO)C(O)C(NC(=O)N(C)N=O)C1O` (centres undefined), the T/C runs as follows: (dose: 12.5 mg/kg/injection, schedule: Q07DX002 (ip), vehicle: saline) 113 % of control; (dose: 50.0 mg/kg/injection, schedule: Q07DX002 (ip), vehicle: saline) 95 % of control and 102 % of control; (dose: 800.0 mg/kg/injection, schedule: Q07DX002 (ip), vehicle: saline) 2 % of control and 9 % of control.
For `Nc1ncnc2c1ccn2C1OC(CO)C(O)C1O` (centres undefined), the T/C is, setting by setting: (dose: 0.5 mg/kg/injection, schedule: Q07DX003 (ip), vehicle: Klucel (hydroxypropylcellulose) (HPC)) 110 % of control and 87 % of control; (dose: 1.0 mg/kg/injection, schedule: Q07DX003 (ip), vehicle: Klucel (hydroxypropylcellulose) (HPC)) 74 % of control and 80 % of control; (dose: 2.0 mg/kg/injection, schedule: Q07DX003 (ip), vehicle: Klucel (hydroxypropylcellulose) (HPC)) 84 % of control and 86 % of control.
`NC(=O)c1cn(C2OC(CO)C(O)C2O)c2ncnc(N)c12` (centres undefined): the T/C was 55 % of control (dose: 0.5 mg/kg/injection, schedule: Q07DX002 (ip), vehicle: suspension in saline); 84 % of control (dose: 1.0 mg/kg/injection, schedule: Q07DX002 (ip), vehicle: suspension in saline); 73 % of control (dose: 2.0 mg/kg/injection, schedule: Q07DX002 (ip), vehicle: saline with Tween-80); 56 % of control and 62 % of control (dose: 2.0 mg/kg/injection, schedule: Q07DX002 (ip), vehicle: suspension in saline); 79 % of control (dose: 4.0 mg/kg/injection, schedule: Q07DX002 (ip), vehicle: saline with Tween-80); 48 % of control and 73 % of control (dose: 4.0 mg/kg/injection, schedule: Q07DX002 (ip), vehicle: suspension in saline). Besides, the T/C (dose: 8.0 mg/kg/injection, schedule: Q07DX002 (ip), vehicle: suspension in saline) was 38 % of control.
Turning to `COc1cc2c(c(OC)c1OC)-c1c(cc3c(c1OC)OCO3)CC(C)C(C)(O)C2OC(=O)c1ccccc1` (centres undefined), the T/C is, setting by setting: (dose: 50.0 mg/kg/injection, schedule: Q07DX002 (ip), vehicle: saline + Tween-80 + alcohol) 165 % of control; (dose: 100.0 mg/kg/injection, schedule: Q07DX002 (ip), vehicle: saline + Tween-80 + alcohol) 103 % of control; (dose: 200.0 mg/kg/injection, schedule: Q07DX002 (ip), vehicle: saline + Tween-80 + alcohol) 106 % of control; (dose: 400.0 mg/kg/injection, schedule: Q07DX002 (ip), vehicle: saline + Tween-80 + alcohol) 211 % of control; (dose: 800.0 mg/kg/injection, schedule: Q07DX002 (ip), vehicle: saline + Tween-80 + alcohol) 111 % of control.
For `C1CCC2[N-]CC3CCCCC3[N-]CC3CCCCC3[N-]CC3CCCCC3[N-]CC2C1.[Cu]` (centres undefined), the T/C (dose: 1.56 mg/kg/injection, schedule: Q07DX002 (ip), vehicle: Klucel (hydroxypropylcellulose) (HPC)) was 93 % of control; the T/C (dose: 1.56 mg/kg/injection, schedule: Q07DX003 (ip), vehicle: Klucel (hydroxypropylcellulose) (HPC)) is 97 % of control; the T/C (dose: 3.13 mg/kg/injection, schedule: Q07DX002 (ip), vehicle: Klucel (hydroxypropylcellulose) (HPC)) was 81 % of control; the T/C (dose: 6.25 mg/kg/injection, schedule: Q07DX002 (ip), vehicle: Klucel (hydroxypropylcellulose) (HPC)) was 91 % of control; the T/C (dose: 6.25 mg/kg/injection, schedule: Q07DX003 (ip), vehicle: Klucel (hydroxypropylcellulose) (HPC)) was 100 % of control; the T/C (dose: 12.5 mg/kg/injection, schedule: Q07DX002 (ip), vehicle: Klucel (hydroxypropylcellulose) (HPC)) is 97 % of control. Also, for the setting “dose: 12.5 mg/kg/injection, schedule: Q07DX003 (ip), vehicle: Klucel (hydroxypropylcellulose) (HPC)”, the T/C was 95 % of control.
Take `Nc1ccc(C(=O)Nc2ccccc2N)cc1`: the T/C by setting is: under setting [5], 121 % of control; (dose: 25.0 mg/kg/injection, schedule: Q01DX007 (ip), vehicle: saline with Tween-80) 160 % of control; (dose: 25.0 mg/kg/injection, schedule: Q01DX007 (oral), vehicle: saline with Tween-80) 58 % of control; under setting [2], 67 % of control; (dose: 50.0 mg/kg/injection, schedule: Q01DX007 (ip), vehicle: saline with Tween-80) 71 % of control; (dose: 50.0 mg/kg/injection, schedule: Q01DX007 (oral), vehicle: saline with Tween-80) 78 % of control. Further, the T/C is 123 % of control (dose: 100.0 mg/kg/injection, schedule: Q01DX007 (ip), vehicle: saline with Tween-80); 121 % of control under setting [3]; 76 % of control (dose: 200.0 mg/kg/injection, schedule: Q01DX007 (oral), vehicle: saline with Tween-80); 84 % of control under setting [6]; 105 % of control (dose: 400.0 mg/kg/injection, schedule: Q01DX007 (oral), vehicle: saline with Tween-80).
Consider `c1cnc2ncncc2n1`, for which the T/C is, setting by setting: under setting [1], 88 % of control; under setting [5], 83 % of control and 95 % of control; under setting [3], 80 % of control and 89 % of control; (dose: 100.0 mg/kg/injection, schedule: Q07DX002 (ip), vehicle: saline) 124 % of control; under setting [6], 73 % of control and 88 % of control; under setting [4], 181 % of control.
Regarding `CC(C)[NH-].CC(C)[NH-].O.O.[Cl][Pt+2][Cl]`, the T/C reads like this: (dose: 3.12 mg/kg/injection, schedule: Q07DX003 (ip), vehicle: dextrose) 90 % of control; (dose: 6.25 mg/kg/injection, schedule: Q07DX002 (ip), vehicle: dextrose) 41 % of control; (dose: 12.5 mg/kg/injection, schedule: Q07DX002 (ip), vehicle: dextrose) 81 % of control; (dose: 25.0 mg/kg/injection, schedule: Q07DX002 (ip), vehicle: dextrose) 39 % of control; (dose: 25.0 mg/kg/injection, schedule: Q07DX003 (ip), vehicle: dextrose) 52 % of control.
